Reference: US8933035B2, “Transglutaminase-activating peptide and cosmetic or pharmaceutical composition containing same” (ISP Investments Inc., priority 2009, dated 2015)

What was measured:
pankeratins = test: immunolabelling of epidermal differentiation marker pankeratins; assay type: cell-based, human; settings: 0.5 ppm, 24 hours; labelled in skin biopsies
Description: (§1) The objective of this study was to determine the influence of peptide SEQ ID NO: 5 on epidermal differentiation. To this end, the expression of the main markers of epidermal differentiation, expressed specifically in the keratinocytes in the suprabasal layers, were studied. The tested markers are transglutaminase 1, pankeratins, filaggrin, involucrin and loricrin. On the other hand, filaggrin, involucrin and loricrin are precursors of the cornified envelope and of transglutaminase substrates.
(§2) Biopsies of human skin were placed in culture at the air/liquid interface. A 1% solution of a mother solution containing 50 ppm of peptide SEQ ID NO: 5 was applied topically over 24 hours. The biopsies were then enclosed in paraffin and histological sections 3 μm thick were made. The slides were deparaffined, hydrated, then immunolabelled by an antibody directed against TG1 (Clinisciences BT-621, mouse monoclonal) or cyto-pankeratins (NOVOCASTRA® NCL-CK10 antibody, mouse monoclonal), or loricrin (ABCAM® ab24722 antibody, rabbit polyclonal), or involucrin (NOVOCASTRA® NCL-INV antibody, clone SY5, mouse monoclonal) or filaggrin (Tebu Santa Cruz sc-58761, mouse monoclonal). For easier observation, the rings of the cells can be counter-stained by DAPI (4′,6′ di amidine-2-phenyl indole, a blue fluorescent molecule capable of binding strongly to DNA). […]

TG3 [1] = test: immunolabelling of TG3 in ex vivo human skin biopsies; assay type: cell-based; settings: cultivated ex vivo skin biopsies, 0.5 ppm topically, 24 hours
Protocol: Biopsies of human skin were placed in culture at the air/liquid interface. A 1% solution of a mother solution containing 50 ppm of peptide SEQ ID NO: 5 was applied topically over 24 hours.
For the labellings of TG3, the skin biopsies were enclosed in paraffin and histological sections 3 μm thick were made. The slides were deparaffined, hydrated, then immunolabelled by an antibody directed against TG3 (ABCAM® ab53236 antibody, mouse monoclonal), then by a suitable secondary antibody coupled to a fluorescent marker. The skin sections were then examined under epifluorescence microscope (ECLIPSE® E 80i microscope by Nikon Corporation).

biopsies of human skin [2] = test: study of epidermal regeneration, histology of skin biopsies; assay type: cell-based; settings: 1% of 50 ppm mother solution topically, 24 hours
Protocol: Biopsies of human skin were placed in culture at the air/liquid interface. A 1% solution of a mother solution containing 50 ppm of peptide SEQ ID NO: 5 was applied topically, then the samples were incubated for 24 hours. The skin biopsies were then enclosed in paraffin and histological sections 3 μm thick were made. The sections were deposited on Superfrost Plus slides (Menzel Glaser, Thermo Scientific), then deparaffined in xylene and rehydrated in a series of alcohol-water solutions. The sections were then stained by 50% haematoxylin for 3 minutes, rinsed, then stained with 60% eosin for 3 minutes and rinsed in water. The sections were then dehydrated, mounted in Eukitt and examined by optical microscopy.

TG2 [3] = test: immunofluorescence labelling of TG2 in cultured normal human keratinocytes; assay type: cell-based; settings: 0.5 ppm, 24 hours
Protocol: (§3) The objective of this study was to determine the influence of peptide SEQ ID NO: 5 on the expression of the different transglutaminases expressed in the human skin. To this end, a culture of normal human keratinocytes (NHKs) and a skin biopsy were subjected to specific labellings by immunofluorescence. Cultures of normal human fibroblasts were also labelled by immunofluorescence, specifically for TG2, which is expressed in these types of cell. Cultured NHKs were treated with a 1% solution of a mother solution containing 50 ppm of peptide SEQ ID NO: 5 for 24 hours. For immunolabelling by the anti-TG1 antibody, the cells were washed and fixed with 3.7% paraformaldehyde for 10 minutes. The cells were then incubated in the presence of a specific anti-TG1 antibody (Clinisciences BT-621, mouse monoclonal), then in the presence of a suitable secondary antibody coupled to a fluorescent marker. For the other immunolabellings, the cells were washed and fixed with cold methanol for 1 minute. The cells were then incubated in the presence of a specific antibody; anti-TG2 (ABCAM® ab2972 antibody, rabbit polyclonal), anti-TG3 (ABCAM® ab53236 antibody, mouse monoclonal) or anti-TG5 (ABCAM® ab26992 antibody, rabbit polyclonal). After mounting in a medium ad hoc, the slides were observed under epifluorescence microscope (ECLIPSE® E 80i microscope by Nikon Corporation).

biopsies of human skin [4] = test: epidermal differentiation, morphology of skin sections ex vivo; assay type: cell-based; settings: 0.5 ppm topically, 24 hours
Protocol: Biopsies of human skin were placed in culture at the air/liquid interface. A 1% solution of a mother solution containing 50 ppm of peptide SEQ ID NO: 5 was applied topically over 24 hours. The biopsies were then enclosed in paraffin and histological sections 3 μm thick were made. The slides were deparaffined, hydrated, then immunolabelled by an antibody directed against TG1 (Clinisciences BT-621, mouse monoclonal) or cyto-pankeratins (NOVOCASTRA® NCL-CK10 antibody, mouse monoclonal), or loricrin (ABCAM® ab24722 antibody, rabbit polyclonal), or involucrin (NOVOCASTRA® NCL-INV antibody, clone SY5, mouse monoclonal) or filaggrin (Tebu Santa Cruz sc-58761, mouse monoclonal). For easier observation, the rings of the cells can be counter-stained by DAPI (4′,6′ di amidine-2-phenyl indole, a blue fluorescent molecule capable of binding strongly to DNA). A suitable secondary antibody coupled to a fluorescent marker was then used. After mounting in a medium ad hoc, the slides were observed under epifluorescence microscope (ECLIPSE® E 80i microscope by Nikon Corporation).

TG5 = test: immunofluorescence labelling of TG5 in cultured normal human keratinocytes; assay type: cell-based; settings: 0.5 ppm, 24 hours
Protocol: as §3

TG1 [5] = test: immunolabelling of TG1 in ex vivo human skin biopsies; assay type: cell-based; settings: cultivated ex vivo skin biopsies, 0.5 ppm topically, 24 hours
Protocol: (§4) Biopsies of human skin were placed in culture at the air/liquid interface. A 1% solution of a mother solution containing 50 ppm of peptide SEQ ID NO: 5 was applied topically over 24 hours. For the labellings of TG1 and TG2, the skin biopsies were then enclosed in resin and frozen in nitrogen. Sections of approximately 6 μm were then made by cryostat. Immunolabelling was carried out by means of a specific antibody; anti-TG1 (Clinisciences BT-621, mouse monoclonal) or anti-TG2 (ABCAM® ab2972 antibody, rabbit polyclonal), then by means of a suitable secondary antibody coupled to a fluorescent marker. The skin sections were then examined under epifluorescence microscope (ECLIPSE® E 80i microscope by Nikon Corporation).

TG2 [6] = test: immunofluorescence labelling of TG2 in cultured normal human fibroblasts; assay type: cell-based; settings: 0.5 ppm, 24 hours
Protocol: as §3, with “Corporation). […]” for “Corporation).”

human fibroblasts = test: Ibidi in vitro healing model of fibroblast regeneration; assay type: cell-based; settings: 0.5 ppm and 1.5 ppm
Protocol: The Ibidi in vitro healing model was used (Biovalley, Marne la Vallée, France). Human fibroblasts were sown in two separate compartments of an Ibidi insert, which was then placed in a culture dish. On confluence, the insert was removed, thus creating an acellular zone measuring 400 μm wide between the two cellular lawns. The peptide diluted to 1% and 3% from a mother solution containing 50 ppm of peptide SEQ ID NO: 5 was then added to the culture medium, and the treatment was carried out for 48 hours with renewal of the active ingredient every 24 hours. Inspection by phase contrast microscopy (Olympus CK40 microscope, ×5, connected to an Olympus E-510 camera) was carried out at different times (0 to 48 hours) during the migration process.

TG3 [7] = test: immunofluorescence labelling of TG3 in cultured normal human keratinocytes; assay type: cell-based; settings: 0.5 ppm, 24 hours
Protocol: as §3

TG1 [8] = test: immunoblot of TG1 in cultured NHKs; assay type: cell-based, human; settings: 1% of 50 ppm mother solution, 24 hours
Protocol: (§5) Cultured NHKs were treated with a 1% solution of a mother solution containing 50 ppm of peptide SEQ ID NO: 5 for 24 hours. The cells were then rinsed and detached from the support by scraping in a RIPA buffer in the presence of a cocktail of protease inhibitors (Thermo Scientific, Rockford, USA). The lysed cells were centrifuged at 4° C. at 10,000 rpm for 20 minutes and the supernatants were collected. The samples were then standardised by assaying of the proteins by BCA kit (Pierce, France). The samples were mixed, then subjected to electrophoresis on NUPAGE® 3-8% tris-acetate gel in a NuPAGE NUPAGE® tris-acetate migration buffer, then blotted on a membrane of nitrocellulose by means of a blotting device (Invitrogen, Paisley, UK). The membranes were saturated in 5 TBS milk for 2 hours at ambient temperature, then incubated at 4° C. overnight with a primary antibody directed against TG1 (Clinisciences BT-621, monoclonal mouse) or against involucrin (NOVOCASTRA®NCL-INV antibody, clone SY5, mouse monoclonal) or against loricrin (ABCAM® ab24722 antibody, rabbit polyclonal). After washing by 0.05% TBS-Tween buffer, the membrane was incubated with a suitable secondary antibody coupled to peroxidase. The blots were then developed by means of a chemiluminescent substrate (SuperSignal West Dura Extended Duration Substrate, Pierce, Brebiere, France).

loricrin [9] = test: immunoblot of loricrin in cultured NHKs; assay type: cell-based, human; settings: 1% of 50 ppm mother solution, 24 hours
Protocol: as §5

loricrin [10] = test: immunolabelling of epidermal differentiation marker loricrin; assay type: cell-based, human; settings: 0.5 ppm, 24 hours; cultured NHKs and skin biopsies
Description: as §1
(§6) Cultured NHKs were treated with a 1% solution of a mother solution containing 50 ppm of peptide SEQ ID NO: 5 for 24 hours. The cells were then washed and fixed with 3.7% paraformaldehyde for 10 minutes. After unmasking of specific sites, the cells were incubated in the presence of a specific antibody directed against TG1 (Clinisciences BT-621, mouse monoclonal), or against loricrin (ABCAM® ab24722 antibody, rabbit polyclonal), or involucrin (NOVOCASTRA® NCL-INV antibody, mouse monoclonal, clone SY5), then incubated in the presence of a suitable secondary antibody coupled to a fluorescent marker. For easier observation, the rings of the cells can be counter-stained by DAPI (4′,6′ di amidine-2-phenyl indole), a blue fluorescent molecule capable of binding strongly to DNA). […]

TG2 [11] = test: immunolabelling of TG2 in ex vivo human skin biopsies; assay type: cell-based; settings: cultivated ex vivo skin biopsies, 0.5 ppm topically, 24 hours
Protocol: as §4

involucrin [12] = test: immunoblot of involucrin in cultured NHKs; assay type: cell-based, human; settings: 1% of 50 ppm mother solution, 24 hours
Protocol: as §5

filaggrin = test: immunolabelling of epidermal differentiation marker filaggrin; assay type: cell-based, human; settings: 0.5 ppm, 24 hours; labelled in skin biopsies
Description: as §1, §2

involucrin [13] = test: immunolabelling of epidermal differentiation marker involucrin; assay type: cell-based, human; settings: 0.5 ppm, 24 hours; cultured NHKs and skin biopsies
Description: as §1, §6

transglutaminases = test: total enzyme activity of transglutaminases in normal human keratinocytes (fluorescein-labelled cadaverine substrate); assay type: cell-based; settings: NHKs, 0.5 ppm
Protocol: The objective of this study was to determine the influence of peptide SEQ ID NO: 5 on the total activity of transglutaminases in normal human keratinocytes (NHKs). To this end, the total enzyme activity of transglutaminases was assayed by spectrophotometry by means of an amino acid donor substrate, the amino acids being labelled with fluorescein.
NHKs were placed in black 96-well plates. After four days of culture, the NHKs were treated with a 1% solution of a mother solution containing 50 ppm of peptide SEQ ID NO: 5 for 24 or 48 hours (the active ingredient was added every 24 hours). A positive control was created by treating the cells with EGCG (epigallocatechin gallate, the main polyphenol ingredient in green tea) at a concentration of 20 μg/ml. The substrate used was cadaverine labelled with fluorescein (Invitrogen A10466) diluted to 100 μM in the culture medium. […] After two rinses in ethanol, then three rinses in the HBSS buffer, 100 μl of PBS were added to each well and a reading was taken by spectrophotometer at excitation wavelengths of 485 nm and emission wavelengths of 530 nm. Under these conditions, the transglutaminase activity was proportional to the amount of fluorescence emitted (expressed in fluorescence units), based on the total amount of proteins present in each well, previously assayed by the BCA technique.

TG1 [14] = test: immunolabelling of epidermal differentiation marker TG1; assay type: cell-based, human; settings: 0.5 ppm, 24 hours; cultured NHKs and skin biopsies
Description: as §1, §6

TG1 [15] = test: immunofluorescence labelling of TG1 in cultured normal human keratinocytes; assay type: cell-based; settings: 0.5 ppm, 24 hours
Protocol: as §3

## SEQ ID NO: 5 (RRGQ)
pankeratins
  expression of pankeratins (immunofluorescence): stimulates the expression
TG3 [1]
  expression of TG3 (immunofluorescence): stimulates the expression
Biopsies of human skin [2]
  cells of the basal layer in histological sections of epidermis: Greater density of the cells of the basal layer
  cornified layer in histological sections of epidermis: neo-synthesis of the cornified layer, which appears thicker and better hydrated
TG2 [3]
  expression of TG2 (immunofluorescence): stimulates the expression
Biopsies of human skin [4]
  epidermal differentiation, cornified layer morphology: thicker cornified layer
TG5
  expression of TG5 (immunofluorescence): stimulates the expression
TG1 [5]
  expression of TG1 (immunofluorescence): stimulates the expression
TG2 [6]
  expression of TG2 (immunofluorescence): stimulates the expression
Human fibroblasts
  dose dependence of the effect on fibroblast invasion: dose-dependent
Human fibroblasts; 0 to 48 hours
  invasion of the acellular zone with fibroblasts compared to control: quicker
TG3 [7]
  expression of TG3 (immunofluorescence): stimulates the expression
TG1 [8]
  increase in expression of TG1 (quantitative analysis of immunoblots): 20%
Loricrin [9]
  increase in expression of loricrin (quantitative analysis of immunoblots): 16%
Loricrin [10]
  expression of loricrin (immunofluorescence): stimulates the expression
TG2 [11]
  expression of TG2 (immunofluorescence): stimulates the expression
Involucrin [12]
  increase in expression of involucrin (quantitative analysis of immunoblots): 30%
filaggrin
  expression of filaggrin (immunofluorescence): stimulates the expression
Involucrin [13]
  expression of involucrin (immunofluorescence): stimulates the expression
transglutaminases; after 24 hours
  increase in total transglutaminase enzyme activity compared to the untreated control: 30%
transglutaminases; after 48 hours
  increase in total transglutaminase enzyme activity compared to the untreated control: 47.7%
TG1 [14]
  expression of TG1 as differentiation marker (immunofluorescence): stimulates the expression
TG1 [15]
  expression of TG1 (immunofluorescence): stimulates the expression
